The results in this text go back to patent US10723711B2, “1,1,1-trifluoro-3-hydroxypropan-2-yl carbamate derivatives and 1,1,1-trifluoro-4-hydroxybutan-2-yl carbamate derivatives as MAGL inhibitors” (PFIZER INC., priority 2015, dated 2020).

Format in all cases: biochemical
One experiment concerns the target T1, human recombinant FAAH (Homo sapiens, UniProt O00519).
T1 construct: purchased Cayman 10010183
T1 sequence (O00519 1-579): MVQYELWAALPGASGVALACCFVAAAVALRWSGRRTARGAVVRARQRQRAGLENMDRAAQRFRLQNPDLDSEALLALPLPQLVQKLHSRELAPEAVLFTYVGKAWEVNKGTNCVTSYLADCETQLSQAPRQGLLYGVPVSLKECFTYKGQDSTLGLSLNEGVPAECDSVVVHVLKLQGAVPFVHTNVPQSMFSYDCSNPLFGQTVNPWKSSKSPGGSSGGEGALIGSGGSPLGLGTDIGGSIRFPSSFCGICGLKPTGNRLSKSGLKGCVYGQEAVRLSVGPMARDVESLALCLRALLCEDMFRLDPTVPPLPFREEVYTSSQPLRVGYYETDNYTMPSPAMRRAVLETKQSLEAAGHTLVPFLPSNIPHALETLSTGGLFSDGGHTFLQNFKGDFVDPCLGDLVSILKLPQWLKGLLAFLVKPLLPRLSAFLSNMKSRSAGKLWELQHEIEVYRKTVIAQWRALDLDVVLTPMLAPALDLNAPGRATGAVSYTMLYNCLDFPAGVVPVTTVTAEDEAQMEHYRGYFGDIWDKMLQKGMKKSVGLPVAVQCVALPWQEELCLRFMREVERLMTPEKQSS
The experiment in a line: FAAH inhibition enzymatic assay, fluorescent substrate Arachidonoyl-AMC, 30 minute incubation. Particulars: T = 30 min (30 minute incubation); geometric mean of 2-4 determinations unless otherwise indicated. How it is done:
Assessment of FAAH inhibition utilizes human recombinant FAAH and the fluorescent substrate, Arachidonoyl-AMC. 400 nL of a test compound at decreasing concentrations was spotted into a 384-well back plate (PerkinElmer, 6007279) using a Labcyte Echo, followed by addition of 10 μl of FAAH enzyme (Cayman 10010183) in assay buffer (50 mM Tris, pH 9.0, 1 mM EDTA). After a 30 minute incubation at room temperature, 10 μL of Arachidonyl-AMCA was added in assay buffer with 16% DMSO. Final concentration of FAAH enzyme was 0.0125 Units and AAMCA substrate was used at the Km of 5 μM. […] The reaction was allowed to progress for 60 minutes, after which the plate was read on a Molecular Devices FlexStation reader at an Ex/Em of 355/460. Percent inhibitions were calculated based on controls wells containing either no compound (0% inhibition) or a control compound (e.g., an FAAH inhibitor whose activity is known or was previously reported in the literature, such as one with about 100% inhibition). IC50 values were generated based on a four parameter fit model using ABASE software from IDBS.

Experiment [1] deals with T2, human recombinant Monoacylglycerol Lipase (Homo sapiens, UniProt Q99685).
T2 sequence (Q99685 1-303): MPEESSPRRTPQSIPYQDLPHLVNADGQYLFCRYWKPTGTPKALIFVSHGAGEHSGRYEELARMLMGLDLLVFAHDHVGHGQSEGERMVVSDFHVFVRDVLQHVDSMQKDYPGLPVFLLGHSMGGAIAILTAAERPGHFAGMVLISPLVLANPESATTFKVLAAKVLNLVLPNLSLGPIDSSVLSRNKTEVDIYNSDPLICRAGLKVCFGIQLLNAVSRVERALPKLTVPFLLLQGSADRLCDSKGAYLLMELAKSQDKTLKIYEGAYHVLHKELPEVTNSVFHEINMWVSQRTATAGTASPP
The experiment in a line: MAGL inactivation, enzyme progress curves, kinact/KI. Particulars: from enzyme progress curves, T = 0 min protocol; geometric mean of 2-4 determinations unless otherwise indicated. In short, it runs like this: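 Human recombinant MAGL ([…]) with compound, 7-HCA substrate (final 5 μM) added immediately (T=0 min), in pH 7.4 HEPES buffer with 0.1% Triton X-100 and 25% glycerin. Fluorescence (Ex/Em 340/465) was read every minute over 60 min, giving progress curves at decreasing compound concentrations (final 3 μM to 0.03 nM).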

The target of experiment [2] is T2, human recombinant Monoacylglycerol Lipase. Put plainly: MAGL inhibition enzymatic assay, fluorogenic substrate 7-HCA, IC50 at T=0 min or after 30 minute incubation (T=30 min). The following applies: geometric mean of 2-4 determinations unless otherwise indicated. How it is done:
An equal volume of 7-HCA in assay buffer with 10% DMSO was added either immediately (T=0 min) or after a 30 minute incubation (T=30 min) to initiate the reaction. […] After these dilutions, the final concentration of the test compound ranged from 3 μM to 0.03 nM. […] IC50 values were generated based on a four parameter fit model using ABASE software from IDBS.

Setting [3] is: T = 0 min (substrate added immediately), read-out: MAGL (T = 0 min) IC50.
The mark [4] stands for this setting: T = 30 min (30 minute incubation), read-out: MAGL (T = 30 min) IC50.

Where two headings read alike, the source gives them in different places. A value given as a limit tells only on which side of the number the result lay.

In the case of `O=C(O[C@H](CO)C(F)(F)F)N1CCC2(CC1)CC(N1Cc3ccccc3S1(=O)=O)CO2` (mixture of isomers) [Example 101, (2R)-1,1,1-trifluoro-3-hydroxypropan-2-yl 3-(1,1-dioxido-1,2-benzothiazol-2(3H)-yl)-1-oxa-8-azaspiro[4.5]decane-8-carboxylate], the IC50 (commonly the concentration that gives 50% inhibition) turned out to be 6540 nM at human recombinant FAAH, 180 nM in experiment [2] (setting [3]) and 21 nM in experiment [2] (setting [4]). In experiment [1], the “MAGL kinact/KI” value was 2454 1/s per M.
Taken in the same sequence, the figures for `Cc1ccc(CC2COC3(CCN(C(=O)O[C@H](CO)C(F)(F)F)CC3)C2)nc1` (mixture of isomers) [Example 102, (2R)-1,1,1-Trifluoro-3-hydroxypropan-2-yl 3-[(5-methylpyridin-2-yl)methyl]-1-oxa-8-azaspiro[4.5]decane-8-carboxylate] were 18300 nM, 215 nM, 26 nM and 1336 1/s per M.
Taken in the same sequence, the figures for `O=C(O[C@H](CO)C(F)(F)F)N1CCC2(CC1)CC(c1ccc(F)nc1)CO2` (mixture of isomers) [Example 120] were over 30000 nM, 166 nM, 21 nM and 1516 1/s per M.
The corresponding values for `CCc1cccc(S(=O)(=O)N2CCOC3(CCN(C(=O)O[C@H](CO)C(F)(F)F)CC3)C2)c1` [Example 77] are 5950 nM, 5 nM, 1 nM and 403739 1/s per M.
For `O=C(O[C@H](CO)C(F)(F)F)N1CCC2(CC1)CC(c1ccccc1)CO2` (single isomer, unassigned) [Example 95], the IC50 at human recombinant FAAH was found to be 8720 nM; in experiment [2] (setting [3]), 16 nM; in experiment [2] (setting [4]) it was 1 nM. In experiment [1], the “MAGL kinact/KI” value is on record as 131495 1/s per M.
In the case of `O=C(O[C@H](CO)C(F)(F)F)N1CCC2(CC1)CN(S(=O)(=O)c1ccccc1)CCO2` [Example 7, (2R)-1,1,1-Trifluoro-3-hydroxypropan-2-yl 4-(phenylsulfonyl)-1-oxa-4,9-diazaspiro[5.5]undecane-9-carboxylate], the figures for the concentration for half-maximal inhibition (IC50) (on human recombinant FAAH; in experiment [2] (setting [3]); in experiment [2] (setting [4])) were over 24100 nM, 29 nM and 3 nM, respectively. Besides, the “MAGL kinact/KI” value in experiment [1] is 29124 1/s per M.
As for `O=C(O[C@@H]([C@@H](O)C(F)(F)F)C(F)(F)F)N1C[C@@H]2[C@H](C1)[C@H]2c1ccn(-c2ccc(F)cc2)n1` (racemic) [Example 36], the IC50 worked out at 13200 nM on human recombinant FAAH, 132 nM in experiment [2] (setting [3]) and 12 nM in experiment [2] (setting [4]). Further, the “MAGL kinact/KI” value in experiment [1] is on record as 3736 1/s per M.
Consider `CC(c1ccc(F)cc1)N1CCOC2(CCN(C(=O)O[C@H](CO)C(F)(F)F)CC2)C1` (mixture of isomers) [Example 43], for which the 50% inhibitory concentration (IC50) on human recombinant FAAH is over 30000 nM; in experiment [2] (setting [3]), 145 nM; in experiment [2] (setting [4]) it was 13 nM. Besides, the “MAGL kinact/KI” value in experiment [1] is listed as 3478 1/s per M.
In the case of `CN(C1COC2(CCN(C(=O)O[C@H](CO)C(F)(F)F)CC2)C1)S(=O)(=O)c1cccc(F)c1` (single isomer, unassigned) [Example 109], the half-inhibitory concentration (IC50) on human recombinant FAAH is over 30000 nM; in experiment [2] (setting [3]), 21 nM; in experiment [2] (setting [4]) it was 2 nM. Besides, the “MAGL kinact/KI” value in experiment [1] is 34918 1/s per M.
Turning to `CN([C@H]1COC2(CCN(C(=O)O[C@H](CO)C(F)(F)F)CC2)C1)S(=O)(=O)CC(F)(F)F` [Example 137], the figures for the IC50 (at human recombinant FAAH; in experiment [2] (setting [3]); in experiment [2] (setting [4])) were over 30000 nM, 126 nM and 11 nM, respectively. In addition, the “MAGL kinact/KI” value in experiment [1] is listed as 7582 1/s per M.
Consider `CCN([C@H]1COC2(CCN(C(=O)O[C@H](CO)C(F)(F)F)CC2)C1)S(=O)(=O)c1ccccc1` [Example 92, (2R)-1,1,1-Trifluoro-3-hydroxypropan-2-yl (3R)-3-[ethyl(phenylsulfonyl)amino]-1-oxa-8-azaspiro[4.5]decane-8-carboxylate], for which the concentration for half-maximal inhibition (IC50) is over 30000 nM at human recombinant FAAH, 6 nM in experiment [2] (setting [3]) and 1 nM in experiment [2] (setting [4]). For the same compound, the “MAGL kinact/KI” value in experiment [1] is reported as 215500 1/s per M.
Regarding `O=C(O[C@H](CO)C(F)(F)F)N1CCC(c2ccn(-c3ccc(F)cc3)n2)CC1` [Example 2, (2R)-1,1,1-Trifluoro-3-hydroxypropan-2-yl 4-[1-(4-fluorophenyl)-1H-pyrazol-3-yl]piperidine-1-carboxylate], the concentration for half-maximal inhibition (IC50) came out at 1140 nM on human recombinant FAAH, 56 nM in experiment [2] (setting [3]) and 8 nM in experiment [2] (setting [4]). Besides, in experiment [1], the “MAGL kinact/KI” value is given as 6109 1/s per M.
The corresponding values for `O=C(O[C@H](CO)C(F)(F)F)N1CCC2(CC1)CCN(C(=O)C1CCC(F)(F)CC1)C2` [Example 127] are over 30000 nM, 163 nM, 17 nM and 2067 1/s per M.
As to `O=C(O[C@H](CO)C(F)(F)F)N1CCC2(CC1)CC(c1cccc(OC(F)(F)F)c1)CO2` (mixture of isomers) [Example 118], the half-inhibitory concentration (IC50) at human recombinant FAAH is over 24800 nM; in experiment [2] (setting [3]), 2 nM; in experiment [2] (setting [4]), 0.4 nM. Besides, the “MAGL kinact/KI” value in experiment [1] is reported as 172844 1/s per M.
Taken in the same sequence, the figures for `O=C(O[C@H](CO)C(F)(F)F)N1CCC2(CC1)CN(S(=O)(=O)c1cccc(Cl)c1)CCO2` [Example 83] were over 30000 nM, 19 nM, 2 nM and 21997^d 1/s per M.
The corresponding values for `O=C(O[C@H](CO)C(F)(F)F)N1CCC(Oc2ccc(C3CC3)cn2)CC1` [Example 10, (2R)-1,1,1-Trifluoro-3-hydroxypropan-2-yl 4-[(5-cyclopropylpyridin-2-yl)oxy]piperidine-1-carboxylate] are over 30000 nM, 77 nM, 7 nM and 5205 1/s per M.
The corresponding values for `CC(C)N([C@H]1COC2(CCN(C(=O)O[C@H](CO)C(F)(F)F)CC2)C1)S(=O)(=O)c1ccccc1` [Example 107] are over 30000 nM, 10 nM, 1 nM and 127771 1/s per M.
On to `CN(CC1CCN(C(=O)O[C@H](CO)C(F)(F)F)CC1)S(=O)(=O)c1ccc(F)cc1` [Example 62], for which the half-maximal inhibitory concentration (IC50) was over 30000 nM on human recombinant FAAH, 67 nM in experiment [2] (setting [3]) and 7 nM in experiment [2] (setting [4]). In experiment [1], the “MAGL kinact/KI” value is recorded as 216 1/s per M.
The corresponding values for `O=C(O)C(F)(F)F.O=C(O[C@H](CO)C(F)(F)F)N1CCC2(CC1)CC(c1ccc(F)cn1)CO2` (mixture of isomers) [Example 97, (2R)-1,1,1-Trifluoro-3-hydroxypropan-2-yl 3-(5-fluoropyridin-2-yl)-1-oxa-8-azaspiro[4.5]decane-8-carboxylate, trifluoroacetate salt] are over 30000 nM, 192 nM, 20 nM and 1897 1/s per M.
For the compound `Cc1cc(S(=O)(=O)N2CCOC3(CCN(C(=O)O[C@H](CO)C(F)(F)F)CC3)C2)ccc1F` [Example 51], the IC50 at human recombinant FAAH was over 30000 nM; in experiment [2] (setting [3]) it was 43 nM; in experiment [2] (setting [4]), 4 nM. In experiment [1], the “MAGL kinact/KI” value is reported as 10340 1/s per M.
